Results reported in US7205295B2, “Benzoxazin-3-ones and derivatives thereof as therapeutic agents” (Warner-Lambert Company LLC, priority 2002, dated 2007).

Biological target: T1, PI3Kγ (p101/p110γ protein) (Homo sapiens, UniProt P48736)
T1 construct: HA; made in house; host or cells: Spodoptera frugiperda (Sf9) cells, baculovirus co-infection
Assay: PI3Kγ In Vitro Kinase Assay
Type: biochemical
Conditions: purified recombinant p101/p110γ with G protein β1/γ2 subunits; 20 μM ATP, 25 μM PIP2; 20 minutes at room temperature
Description: Spodtera frugiperda cells, grown in ESF921 media, were coinfected with baculovirus expressing a glu-tagged p101 and baculovirus expressing an HA-tagged p110γ, at a 3:1 ratio of p101 baculovirus to p110γ baculovirus. Sf9 cells were grown to 1×10^7 total cells/mL in 10L bioreactors and harvested 48-72 hours post infection. Samples of infected cells were then tested for expression of p101/p110γ PI3 kinase by immunoprecipitation and Western Blot analysis methods (see below). […] NaCl was added to 150 mM, and sodium cholate was added to 1% and mixed for another 45 minutes. The lysates were clarified by centrifugation for 25 minutes at 14,000 rpm. The lysates were then loaded over anti-glu-linked Protein-G Sepaharose beads (Covance Research Products, Richmond, Calif.) using 20 mL resin/50 g cell paste. […] PI3Kγ was eluted with 6 column volumes of wash buffer that contain 100 μg/mL of a peptide that competes for binding of the glu tag. […] The fractions were stored at -80° C. until further use. Spodtera frugiperda cells were coinfected with baculovirus expressing a glu-tagged G protein β1 and baculovirus expressing a G protein […] at a 1:1 ratio of glu-tagged G protein β1 baculovirus to G protein β2 baculovirus. Sf9 cells are grown in 10 L bioreactors and harvested 48-72 hours post infection. Samples of infected cells were tested for G protein β1/β2 expression by Western Blot analysis, as described below. Cell lysates were homogenized and loaded onto a column of glu-tagged beads as in Biological Example 1 and competed off the column with a glu peptide as described in Biological Example 1. The inhibitory properties of the compounds in Table 1 were assayed in an in vitro PI3K assay. In a 96-well polypropylene plate, each well was spotted with 2 μL of […] the desired final concentration of compound in DMSO. Purified recombinant p101/p110γ protein (0.03 μg; 2.7 nM) and G protein β1/γ2 subunits (0.09 μg; 57.7 nM) for each reaction was combined in the assay buffer (30 mM HEPES, 100 mM NaCl, 1 mM EGTA, and 1 mM DTT). ATP and [γ-^32P-ATP] (0.09 μCi) were added to this mixture so that the final ATP concentration in the reaction was 20 μM. Lipid micelles were formed by sonicating phosphatidylinositol-4,5-diphosphate (PIP2), phosphatidylethanolamine (PE), and Na-cholate in the assay buffer for 10 minutes, adding MgCL2 and incubating on ice for 20 minutes, for final concentrations of 25 μM PIP2, 300 [M PE, 0.02% Na-cholate, and 10 mM MgCl2 in the reaction. The reactions were started by adding equal volumes lipid and enzyme mixture in a total volume of 50 μL, allowed to run for 20 minutes at room temperature, and stopped with 100 μL 75 mM H3PO4. The lipid product was transferred to a glass fiber filter plate and washed with 75 mM H3PO4 several times. The presence of radioactive lipid product (PIP3) was measured by adding Wallac Optiphase mix to each well and counting in a Wallac 1450 Trilux plate reader (PerkinElmer Life Sciences Inc., Boston, Mass. 02118).

T1 sequence (P48736 whole entry, species assumed): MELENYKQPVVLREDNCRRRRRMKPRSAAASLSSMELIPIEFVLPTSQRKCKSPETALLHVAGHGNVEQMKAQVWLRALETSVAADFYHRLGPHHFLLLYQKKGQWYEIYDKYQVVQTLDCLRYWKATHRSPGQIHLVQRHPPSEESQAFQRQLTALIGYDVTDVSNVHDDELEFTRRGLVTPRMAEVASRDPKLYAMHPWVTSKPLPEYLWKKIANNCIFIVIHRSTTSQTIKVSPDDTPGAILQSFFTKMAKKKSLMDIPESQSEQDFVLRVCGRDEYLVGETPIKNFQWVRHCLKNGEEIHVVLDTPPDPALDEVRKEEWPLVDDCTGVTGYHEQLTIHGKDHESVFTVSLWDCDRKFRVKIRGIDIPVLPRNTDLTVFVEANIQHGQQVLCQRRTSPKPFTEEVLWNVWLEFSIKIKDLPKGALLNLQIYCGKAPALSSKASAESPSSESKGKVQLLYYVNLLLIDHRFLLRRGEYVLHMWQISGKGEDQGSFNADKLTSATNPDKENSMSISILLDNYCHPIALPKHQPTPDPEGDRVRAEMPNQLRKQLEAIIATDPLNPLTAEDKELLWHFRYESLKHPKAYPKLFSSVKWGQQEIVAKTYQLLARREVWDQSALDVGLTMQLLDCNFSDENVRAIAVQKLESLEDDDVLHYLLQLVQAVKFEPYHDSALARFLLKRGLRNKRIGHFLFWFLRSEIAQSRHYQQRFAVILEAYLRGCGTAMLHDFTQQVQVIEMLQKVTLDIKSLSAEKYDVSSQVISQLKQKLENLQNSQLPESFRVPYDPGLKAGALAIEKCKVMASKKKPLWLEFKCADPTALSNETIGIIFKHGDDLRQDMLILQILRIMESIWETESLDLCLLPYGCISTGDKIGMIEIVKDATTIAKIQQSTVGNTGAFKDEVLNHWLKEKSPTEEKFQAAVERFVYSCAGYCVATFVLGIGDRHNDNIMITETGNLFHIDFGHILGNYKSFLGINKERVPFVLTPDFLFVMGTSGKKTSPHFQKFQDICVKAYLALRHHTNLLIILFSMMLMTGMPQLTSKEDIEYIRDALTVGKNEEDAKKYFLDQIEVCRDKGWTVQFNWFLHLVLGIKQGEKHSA
T1 sequence (Q8WYR1 whole entry partner, species assumed): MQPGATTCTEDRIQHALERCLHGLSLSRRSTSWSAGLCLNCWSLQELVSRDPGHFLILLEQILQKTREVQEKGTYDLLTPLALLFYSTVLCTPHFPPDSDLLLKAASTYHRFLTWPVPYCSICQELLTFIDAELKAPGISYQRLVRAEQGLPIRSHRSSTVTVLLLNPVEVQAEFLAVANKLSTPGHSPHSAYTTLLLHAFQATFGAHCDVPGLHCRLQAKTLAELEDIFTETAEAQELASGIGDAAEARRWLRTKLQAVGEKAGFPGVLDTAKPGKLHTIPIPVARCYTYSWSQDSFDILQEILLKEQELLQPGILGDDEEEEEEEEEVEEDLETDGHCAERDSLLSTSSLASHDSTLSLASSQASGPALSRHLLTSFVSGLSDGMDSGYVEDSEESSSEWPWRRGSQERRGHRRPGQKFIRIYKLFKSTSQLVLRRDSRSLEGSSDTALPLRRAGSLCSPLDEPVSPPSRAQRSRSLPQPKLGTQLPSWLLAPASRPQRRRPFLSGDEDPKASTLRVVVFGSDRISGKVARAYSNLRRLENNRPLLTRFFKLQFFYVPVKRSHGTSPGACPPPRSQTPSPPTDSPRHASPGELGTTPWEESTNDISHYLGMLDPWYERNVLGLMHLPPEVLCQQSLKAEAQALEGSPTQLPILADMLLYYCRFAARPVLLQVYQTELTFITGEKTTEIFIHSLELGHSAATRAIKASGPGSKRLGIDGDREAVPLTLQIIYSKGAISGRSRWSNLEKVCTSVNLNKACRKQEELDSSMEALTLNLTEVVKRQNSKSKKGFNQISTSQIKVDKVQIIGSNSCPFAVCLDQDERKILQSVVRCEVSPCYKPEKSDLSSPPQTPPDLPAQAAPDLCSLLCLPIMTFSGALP

SMILES	IC50
O=C1NC(=S)SC1=Cc1ccc2c(c1)N(CC1CC1)C(=O)CO2 [Example 145, 4-Cyclopropylmethyl-6-(4-oxo-2-thioxo-thiazolidin-5-ylidenemethyl)-4H-benzo[1,4]oxazin-3-one]	0.026 µM
CCCCN1CCN(Cc2ccc(CN3C(=O)COc4ccc(C=C5SC(=S)NC5=O)cc43)cc2)CC1 [Example 77, 4-[4-(4-Butyl-piperazin-1-ylmethyl)-benzyl]-6-(4-oxo-2-thioxo-thiazolidin-5-ylidenemethyl)-4H-1,4-benzoxazin-3-one]	0.021 µM
CC(C)(C)c1ccc(CN2C(=O)COc3ccc(C=C4SC(=S)NC4=O)cc32)cc1 [Example 184, 4-(4-tert-Butyl-benzyl)-6-(4-oxo-2-thioxo-thiazolidin-5-ylidenemethyl)-4H-1,4-benzoxazin-3-one]	0.003 µM
CS(=O)(=O)c1cccc(CN2C(=O)COc3ccc(/C=C4\SC(=S)NC4=O)cc32)c1 [Example 270, 4-(3-Methanesulfonyl-benzyl)-6-[4-oxo-2-thioxo-thiazolidin-(5Z)-ylidenemethyl]-4H-benzo[1,4]oxazin-3-one]	0.011 µM
O=C1NC(=S)SC1=Cc1cc(F)c2c(c1)N(Cc1cc(Br)cc(Br)c1)C(=O)CO2 [Example 297, 4-(3,5-Dibromo-benzyl)-8-fluoro-6-(4-oxo-2-thioxo-thiazolidin-5-ylidenemethyl)-4H-benzo[1,4]oxazin-3-one]	0.036 µM
O=C1NC(=S)SC1=Cc1ccc2c(c1)N(Cc1cccc(SC(F)(F)F)c1)C(=O)CO2 [Example 165, 6-(4-Oxo-2-thioxo-thiazolidin-5-ylidenemethyl)-4-(3-trifluoromethylsulfanyl-benzyl)-4H-1,4-benzoxazin-3-one]	0.015 µM
COCCOCOCc1cc(CN2C(=O)COc3ccc(/C=C4\SC(=S)NC4=O)cc32)cc(C(C)(C)C)c1 [Example 274, 4-[3-tert-Butyl-5-(2-methoxy-ethoxymethoxymethyl)-benzyl]-6-[4-oxo-2-thioxo-thiazolidin-(5Z)-ylidenemethyl]-4H-benzo[1,4]oxazin-3-one]	0.013 µM
O=C1NC(=S)SC1=Cc1ccc2c(c1)N(Cc1ccc(C(F)(F)F)cc1)C(=O)CO2 [Example 158, 6-(4-Oxo-2-thioxo-thiazolidin-5-ylidenemethyl)-4-(4-trifluoromethyl-benzyl)-4H-1,4-benzoxazin-3-one]	0.028 µM
O=C1NC(=O)C(=Cc2ccc3c(c2)N(Cc2cccc(Oc4ccccc4F)c2)C(=O)CO3)S1 [Example 307]	0.005 µM
CCc1cc(CN2C(=O)COc3ccc(C=C4SC(=S)NC4=O)cc32)cc(C(C)(C)C)c1 [Example 63, 4-(3-tert-Butyl-5-ethyl-benzyl)-6-(4-oxo-2-thioxo-thiazolidin-5-ylidenemethyl)-4H-1,4-benzoxazin-3-one]	0.049 µM
CC(C)(C)OC(=O)N1CCN(Cc2ccc(CN3C(=O)COc4ccc(C=C5SC(=S)NC5=O)cc43)cc2)CC1 [Example 74, 4-{4-[3-Oxo-6-(4-oxo-2-thioxo-thiazolidin-5-ylidenemethyl)-2,3-dihydro-1,4-benzoxazin-4-ylmethyl]-benzyl}-piperazine-1-carboxylic acid tert-butyl ester]	0.019 µM
CC(C)Sc1cccc(CN2C(=O)COc3ccc(C=C4SC(=S)NC4=O)cc32)c1 [Example 254, 4-(3-Isopropylsulfanyl-benzyl)-6-(4-oxo-2-thioxo-thiazolidin-5-ylidenemethyl)-4H-1,4-benzoxazin-3-one]	0.01 µM
CN(C)S(=O)(=O)c1cccc(CN2C(=O)COc3ccc(C=C4SC(=S)NC4=O)cc32)c1 [Example 262, N,N-Dimethyl-3-[3-oxo-6-(4-oxo-2-thioxo-thiazolidin-5-ylidenemethyl)-2,3-dihydro-1,4-benzoxazin-4-ylmethyl]-benzenesulfonamide]	0.019 µM
C=Cc1cc(CN2C(=O)COc3ccc(C=C4SC(=S)NC4=O)cc32)cc(C(C)(C)C)c1 [Example 56, 4-(3-tert-Butyl-5-vinyl-benzyl)-6-(4-oxo-2-thioxo-thiazolidin-5-ylidenemethyl)-4H-1,4-benzoxazin-3-one]	0.018 µM
CC(=O)OCc1cc(CN2C(=O)COc3c(F)cc(/C=C4\SC(=S)NC4=O)cc32)cc(C(C)(C)C)c1 [Example 285, Acetic acid 3-tert-butyl-5-{8-fluoro-3-oxo-6-[4-oxo-2-thioxo-thiazolidin-(5Z)-ylidenemethyl]-2,3-dihydro-benzo[1,4]oxazin-4-ylmethyl}-benzyl ester]	0.021 µM
O=C1NC(=S)SC1=Cc1cc(F)c2c(c1)N(Cc1ccc(Cl)s1)C(=O)CO2 [Example 319, 4-(5-Chloro-thiophen-2-ylmethyl)-8-fluoro-6-(4-oxo-2-thioxo-thiazolidin-5-ylidenemethyl)-4H-benzo[1,4]oxazin-3-one]	0.005 µM
O=C1NC(=S)SC1=Cc1ccc2c(c1)N(Cc1ccc(F)cc1)C(=O)CO2 [Example 303, 4-(4-Fluoro-benzyl)-6-(4-oxo-2-thioxo-thiazolidin-5-ylidenemethyl)-4H-benzo[1,4]oxazin-3-one]	0.002 µM
NC(=O)CN1C(=O)COc2ccc(C=C3SC(=S)NC3=O)cc21 [Example 141, 2-[3-Oxo-6-(4-oxo-2-thioxo-thiazolidin-5-ylidenemethyl)-2,3-dihydrobenzo[1,4]oxazin-4-yl]-acetamide]	0.86 µM
O=C1NC(=S)SC1=Cc1ccc2c(c1)N(Cc1ccccc1)C(=O)CO2 [Example 180, 4-Benzyl-6-(4-oxo-2-thioxo-thiazolidin-5-ylidenemethyl)-4H-1,4-benzoxazin-3-one]	0.009 µM
Cc1cc(C=C2SC(=S)NC2=O)c(C)c2c1OCC(=O)N2 [Example 16, 5,8-Dimethyl-6-(4-oxo-2-thioxo-thiazolidin-5-ylidenemethyl)-4H-benzo[1,4]oxazin-3-one]	0.328 µM
NC(=O)c1cccc(CN2C(=O)COc3ccc(C=C4SC(=S)NC4=O)cc32)c1 [Example 172, 3-[3-Oxo-6-(4-oxo-2-thioxo-thiazolidin-5-ylidenemethyl)-2,3-dihydro-1,4-benzoxazin-4-ylmethyl]-benzamide]	0.145 µM
O=C1NC(=O)C(=Cc2ccc3c(c2)N(Cc2ccccc2)C(=O)CO3)S1 [Example 202, 5-(4-Benzyl-3-oxo-3,4-dihydro-2H-1,4-benzoxazin-6-ylmethylene)-thiazolidine-2,4-dione]	0.003 µM
O=C1NC(=S)OC1=Cc1ccc2c(c1)N(Cc1ccc(Cl)c(Cl)c1)C(=O)CO2 [Example 191, 4-(3,4-Dichloro-benzyl)-6-(4-oxo-2-thioxo-oxazolidin-5-ylidenemethyl)-4H-1,4-benzoxazin-3-one]	0.007 µM
O=C1NC(=S)SC1=Cc1ccc2c(c1)N(CC(=O)c1ccc3c(c1)oc1ccccc13)C(=O)CO2 [Example 186, 4-(2-Dibenzofuran-3-yl-2-oxo-ethyl)-6-(4-oxo-2-thioxo-thiazolidin-5-ylidenemethyl)-4H-1,4-benzoxazin-3-one]	0.315 µM
O=C1NC(=S)SC1=Cc1ccc2c(c1)N(Cc1cc(F)cc(C(F)(F)F)c1)C(=O)CO2 [Example 187, 4-(3-Fluoro-5-trifluoromethyl-benzyl)-6-(4-oxo-2-thioxo-thiazolidin-5-ylidenemethyl)-4H-1,4-benzoxazin-3-one]	0.098 µM
Cc1cc(C#N)cc(CN2C(=O)COc3ccc(C=C4SC(=S)NC4=O)cc32)c1 [Example 120]	0.03 µM
O=C1NC(=S)SC1=Cc1ccc2c(c1)N(Cc1ccc3ccccc3c1)C(=O)CO2 [Example 188, 4-Naphthalen-2-ylmethyl-6-(4-oxo-2-thioxo-thiazolidin-5-ylidenemethyl)-4H-1,4-benzoxazin-3-one]	0.02 µM
O=C1NC(=S)SC1=Cc1ccc2c(c1)N(CC(=O)N1CCNCC1)C(=O)CO2 [Example 215, 4-(2-Oxo-2-piperazin-1-yl-ethyl)-6-(4-oxo-2-thioxo-thiazolidin-5-ylidenemethyl)-4H-1,4-benzoxazin-3-one]	1.08 µM
Cc1cc(CN2C(=O)COc3ccc(C=C4SC(=S)NC4=O)cc32)cc(C)c1CN1CCOCC1 [Example 39, 4-(3,5-Dimethyl-4-morpholin-4-ylmethyl-benzyl)-6-(4-oxo-2-thioxo-thiazolidin-5-ylidenemethyl)-4H-1,4-benzoxazin-3-one]	0.335 µM
